The values that follow are results of earlier work, collected in patent US20230065168A1, “[…] COMBINATION WITH A REPLICATION-DEFICIENT TYPE 5 […] EXPRESSION OF INTERFERON GAMMA FOR THE TREATMENT OF SKIN CANCER” (ASCEND BIOPHARMACEUTICALS LTD, priority 2021, published 2023).

In the case of `CS(=O)(=O)c1ccc(C(=O)Nc2ccc(Cl)c(-c3ccccn3)c2)c(Cl)c1` [vismodegib, 2-Chloro-N-(4-chloro-3-(pyridin-2-yl)phenyl)-4-(methylsulfonyl)benzamide], the “time at which adverse events generally begin to manifest” value (oral daily treatment) was 6-8 weeks. For the same compound, the “adverse events commonly associated with administration” value (patients with advanced BCC) was “muscle spasms, alopecia, dysgeusia, weight loss, fatigue, nausea, diarrhea, decreased appetite, constipation, arthralgia, vomiting, and ageusia”.
